Publication PMC8704707 (Pharmaceuticals, 2021)
Converted amounts (≈) assume the structure as drawn. “And” between values parts separate entries of the source, which are not always exact repeats. Equal entries are not always repeated. Where two headings read alike, the source gives them in different places.

Tests used:
[1] = tested on: Escherichia coli ATCC 25922; assay: Antibacterial microdilution broth method (EUCAST); format: cell-based
[2] = tested on: eight human pathogenic fungi; assay: Antifungal microdilution broth method, whole panel; format: cell-based; conditions: not reported in Table 2, read-out: MIC, all fungal strains tested
[3] = tested on: Acinetobacter baumannii ATCC 19606; assay: Antibacterial microdilution broth method (EUCAST); format: cell-based
[4] = tested on: Pseudomonas aeruginosa ATCC 27853; assay: Antibacterial microdilution broth method (EUCAST); format: cell-based
[5] = molecular target: BuChE from equine serum (EqBuChE) (Equus caballus, UniProt P81908); assay: biochemical
[6] = molecular target: AChE from electric eel (EeAChE) (Electrophorus electricus, UniProt O42275); assay: biochemical; format: biochemical
[7] = tested on: methicillin-resistant Staphylococcus aureus ATCC 43300; assay: Antibacterial microdilution broth method (EUCAST); format: cell-based; conditions: ATCC 43300 / MRSA
[8] = tested on: Staphylococcus epidermidis ATCC 12228; assay: Antibacterial microdilution broth method (EUCAST); format: cell-based
[9] = tested on: Staphylococcus aureus ATCC 29213; assay: Antibacterial microdilution broth method (EUCAST); format: cell-based
[10] = tested on: Klebsiella pneumoniae ATCC 10031; conditions: for MIC KP 24 h: 24 h incubation; for MIC KP 48 h: 48 h incubation
[11] = tested on: Enterococcus faecalis ATCC 29212; assay: Antibacterial microdilution broth method (EUCAST); format: cell-based
in vitro [12] = conditions: human, HepG2 cells
Description: (§1) Cytotoxicity of the tested compounds was measured using the standard hepatic cell line HepG2. The used CellTiter 96® assay is based on the reduction of tetrazolium dye (MTS) in living cells to formazan, which is then determined colorimetrically.

HepG2 cells [13] = conditions: read-out: IC50 cytotoxicity towards HepG2 cell line; CellTiter 96, 24 h incubation
Description: as §1

HepG2 cells [14] = assay: LDH release assay (CytoTox 96), membrane integrity; conditions: read-out: EC50 LDH release assay; HepG2, 24 h incubation
in vitro [15] = conditions: human, HepG2 cells; remark: listed apart in the source
[16] = tested on: four Gram-positive and four Gram-negative bacterial strains; assay: Antibacterial microdilution broth method, whole panel; format: cell-based; conditions: read-out: MIC, all bacterial strains tested
[17] = tested on: Trichophyton interdigitale ATCC 9533; assay: microbe, parasite or virus in culture; format: cell-based
[18] = tested on: Candida albicans ATCC 24443; assay: microbe, parasite or virus in culture; format: cell-based
[19] = tested on: Candida tropicalis ATCC 750; assay: microbe, parasite or virus in culture; format: cell-based
[20] = tested on: Candida parapsilosis ATCC 22019; assay: microbe, parasite or virus in culture; format: cell-based; conditions: Lodderomyces parapsilosis
Candida krusei ATCC 6258 = assay: microbe, parasite or virus in culture; format: cell-based; conditions: Pichia kudriavzevii
[21] = ATCC25922, 24 h, read-out: MIC EC 24 h
[22] = ATCC25922, 48 h, read-out: MIC EC 48 h
[23] = ATCC19606, 24 h, read-out: MIC ACI 24 h
[24] = ATCC19606, 48 h, read-out: MIC ACI 48 h
[25] = ATCC27853, 24 h, read-out: MIC PA 24 h
[26] = ATCC27853, 48 h, read-out: MIC PA 48 h
[27] = mean ± SD, n = three independent experiments, BTCh 40 µM, read-out: IC50 BuChE
[28] = mean ± SD, n = three independent experiments, ATCh 40 µM, read-out: IC50 AChE
[29] = ATCC12228, 24 h, read-out: MIC SE 24 h
[30] = ATCC12228, 48 h, read-out: MIC SE 48 h
[31] = ATCC29213, 24 h, read-out: MIC SA 24 h
[32] = ATCC29213, 48 h, read-out: MIC SA 48 h
[33] = ATCC29212, 24 h, read-out: MIC EF 24 h
[34] = ATCC29212, 48 h, read-out: MIC EF 48 h
[35] = ATCC9533, 72 h, read-out: MIC TI 72 h
[36] = ATCC9533, 120 h, read-out: MIC TI 120 h
[37] = ATCC24443, 24 h, read-out: MIC CA 24 h
[38] = ATCC24443, 48 h, read-out: MIC CA 48 h
[39] = ATCC750, 24 h, read-out: MIC CT 24 h
[40] = ATCC750, 48 h, read-out: MIC CT 48 h
[41] = ATCC22019, 24 h, read-out: MIC CP 24 h
[42] = ATCC22019, 48 h, read-out: MIC CP 48 h
[43] = ATCC6258, 24 h, read-out: MIC CK 24 h
[44] = ATCC6258, 48 h, read-out: MIC CK 48 h

BuChE from equine serum (EqBuChE), sequence (P81908 whole entry): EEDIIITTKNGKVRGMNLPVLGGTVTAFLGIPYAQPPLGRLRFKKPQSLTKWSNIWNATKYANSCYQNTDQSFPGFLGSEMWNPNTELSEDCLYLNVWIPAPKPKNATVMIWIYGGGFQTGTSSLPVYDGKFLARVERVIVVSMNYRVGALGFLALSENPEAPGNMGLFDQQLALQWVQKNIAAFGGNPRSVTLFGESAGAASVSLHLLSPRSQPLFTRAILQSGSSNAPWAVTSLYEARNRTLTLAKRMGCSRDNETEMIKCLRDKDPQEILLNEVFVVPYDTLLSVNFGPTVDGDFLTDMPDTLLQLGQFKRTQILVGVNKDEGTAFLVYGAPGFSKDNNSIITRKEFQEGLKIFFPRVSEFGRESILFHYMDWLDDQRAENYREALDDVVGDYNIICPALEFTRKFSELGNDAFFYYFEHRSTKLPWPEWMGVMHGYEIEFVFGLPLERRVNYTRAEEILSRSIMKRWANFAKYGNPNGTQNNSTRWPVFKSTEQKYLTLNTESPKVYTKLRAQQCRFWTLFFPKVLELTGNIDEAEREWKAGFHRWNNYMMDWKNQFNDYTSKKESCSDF
AChE from electric eel (EeAChE), sequence (O42275 24-633): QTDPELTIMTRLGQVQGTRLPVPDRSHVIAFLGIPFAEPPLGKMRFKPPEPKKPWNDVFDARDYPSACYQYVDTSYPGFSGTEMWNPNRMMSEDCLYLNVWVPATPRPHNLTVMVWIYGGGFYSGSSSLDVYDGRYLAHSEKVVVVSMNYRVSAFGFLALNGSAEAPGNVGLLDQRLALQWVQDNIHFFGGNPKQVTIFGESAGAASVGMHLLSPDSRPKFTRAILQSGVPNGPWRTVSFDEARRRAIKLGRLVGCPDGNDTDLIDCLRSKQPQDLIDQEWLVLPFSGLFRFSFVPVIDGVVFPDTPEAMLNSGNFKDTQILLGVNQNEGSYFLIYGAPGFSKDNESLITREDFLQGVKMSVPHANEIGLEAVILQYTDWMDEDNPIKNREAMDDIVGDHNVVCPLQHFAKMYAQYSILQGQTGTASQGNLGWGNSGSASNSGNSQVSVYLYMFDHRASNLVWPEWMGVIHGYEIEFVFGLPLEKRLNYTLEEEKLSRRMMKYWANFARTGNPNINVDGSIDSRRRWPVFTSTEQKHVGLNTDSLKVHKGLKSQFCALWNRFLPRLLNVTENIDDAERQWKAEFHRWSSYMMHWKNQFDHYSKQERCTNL

Structure (SMILES) | MIC [1, 21] | MIC [1, 22] | MIC [2] | MIC [3, 23] | MIC [3, 24] | MIC [4, 25] | MIC [4, 26] | IC50 [5, 27] | Selectivity AChE/BuChE [6] | IC50 [6, 28] | MIC ([7]; 24 h, read-out: MIC MRSA 24 h) | MIC ([7]; 48 h, read-out: MIC MRSA 48 h) | MIC [8, 29] | MIC [8, 30] | MIC [9, 31] | MIC [9, 32] | MIC KP 24 h [10] | MIC KP 48 h [10] | MIC [11, 33] | MIC [11, 34] | further results
NC(=O)N/N=C/c1cc(I)cc(I)c1O [Compound 2h, (E)-2-(2-Hydroxy-3,5-diiodobenzylidene)hydrazine-1-carboxamide] | > 500 µM | > 500 µM | ≥ 500 µM | > 500 µM | > 500 µM | > 500 µM | > 500 µM | 34.7 ± 0.35 µM | 0.88 | 30.7 ± 0.33 µM | 500 µM (≈ 215 µg/mL) | 500 µM (≈ 215 µg/mL) | 125 µM (≈ 53.9 µg/mL) | 125 µM (≈ 53.9 µg/mL) | 250 µM (≈ 108 µg/mL) | 250 µM (≈ 108 µg/mL) | >500 µM | >500 µM | > 500 µM | > 500 µM | –
NC(=S)N/N=C/c1cc(I)cc(I)c1O [Compound 2i, (E)-2-(2-Hydroxy-3,5-diiodobenzylidene)hydrazine-1-carbothioamide] | > 500 µM | > 500 µM | ≥ 500 µM | > 500 µM | > 500 µM | > 500 µM | > 500 µM | 86.24 ± 0.39 µM | 0.61 | 52.22 ± 0.4 µM | 500 µM (≈ 224 µg/mL) | 500 µM (≈ 224 µg/mL) | 250 µM (≈ 112 µg/mL) | 250 µM (≈ 112 µg/mL) | 500 µM (≈ 224 µg/mL) | 500 µM (≈ 224 µg/mL) | >500 µM | >500 µM | 250 µM (≈ 112 µg/mL) | 250 µM (≈ 112 µg/mL) | –
NC(=S)N/N=C/c1ccc([N+](=O)[O-])o1 [Compound 3e, (E)-2-[(5-Nitrofuran-2-yl)methylene]hydrazine-1-carbothioamide] | 125 µM (≈ 26.8 µg/mL) | 250 µM (≈ 53.6 µg/mL) | – | > 500 µM | > 500 µM | > 500 µM | > 500 µM | > 500 µM | <0.07 | 33.16 ± 0.06 µM | 62.5 µM (≈ 13.4 µg/mL) | 62.5 µM (≈ 13.4 µg/mL) | 31.2 µM (≈ 6.69 µg/mL) | 62.5 µM (≈ 13.4 µg/mL) | 62.5 µM (≈ 13.4 µg/mL) | 62.5 µM (≈ 13.4 µg/mL) | 62.5 µM (≈ 13.4 µg/mL) | 62.5 µM (≈ 13.4 µg/mL) | 125 µM (≈ 26.8 µg/mL) | 125 µM (≈ 26.8 µg/mL) | IC50 at 24 h (in vitro [12]): > 29 µM; IC50 (HepG2 cells [13]): 29.8 µM; EC50 (HepG2 cells [14]): 5.25 µM; EC50 at 24 h (in vitro [15]): < 6 µM
[H]/N=C(\N)NN=Cc1ccc(Cl)cc1 [Compound 1d, (E)-2-(4-Chlorobenzylidene)hydrazine-1-carboximidamide] | – | – | – | – | – | – | – | < 20 µM and 13.9 µM | 3.25 | – | – | – | – | – | – | – | – | – | – | – | IC50 [6]: 45.2 ± 1.6 µM; MIC [16]: ≥ 500 µM
[H]/N=C(\NN=Cc1cc(I)cc(I)c1O)N[N+](=O)[O-] [Compound 2f, (E)-2-(2-Hydroxy-3,5-diiodobenzylidene)-N-nitrohydrazine-1-carboximidamide] | – | – | ≥ 500 µM | – | – | – | – | > 500 µM | – | 34.78 ± 0.04 µM | – | – | – | – | – | – | – | – | – | – | MIC [16]: ≥ 500 µM
[H]/N=C(\N)NN=Cc1ccccc1 [Compound 1a, (E)-2-Benzylidenehydrazine-1-carboximidamide] | > 500 µM | > 500 µM | ≥ 500 µM | > 500 µM | > 500 µM | > 500 µM | > 500 µM | – | 0.81 | – | > 500 µM | > 500 µM | 250 µM (≈ 40.5 µg/mL) | 250 µM (≈ 40.5 µg/mL) | 500 µM (≈ 81.1 µg/mL) | 500 µM (≈ 81.1 µg/mL) | >500 µM | >500 µM | > 500 µM | > 500 µM | IC50 ([5]; IC50 BuChE): 44.9 ± 0.54 µM; IC50 [6]: 36.19 ± 0.1 µM
N=C(N)NNCc1cc(I)cc(I)c1O [Compound 2d, 2-(2-Hydroxy-3,5-diiodobenzyl)hydrazine-1-carboximidamide] | – | – | – | – | – | – | – | 41.5 ± 1.45 µM | 1.10 | 45.7 ± 1.7 µM | – | – | – | – | – | – | – | – | – | – | MIC [17, 35]: 62.5 µM (≈ 27 µg/mL); MIC [17, 36]: 62.5 µM (≈ 27 µg/mL); MIC [18, 37]: > 125 µM; MIC [18, 38]: > 125 µM; MIC [19, 39]: > 125 µM; MIC [19, 40]: > 125 µM; MIC [20, 41]: > 125 µM; MIC [20, 42]: > 125 µM; MIC [16]: ≥ 500 µM; MIC (Candida krusei ATCC 6258; [43]): > 125 µM; MIC (Candida krusei ATCC 6258; [44]): > 125 µM
[H]/N=C(\N)NN=Cc1cc(Cl)cc(Cl)c1O [Compound 1j, (E)-2-(3,5-Dichloro-2-hydroxybenzylidene)hydrazine-1-carboximidamide] | 500 µM (≈ 124 µg/mL) | 500 µM (≈ 124 µg/mL) | ≥ 500 µM | 500 µM (≈ 124 µg/mL) | 500 µM (≈ 124 µg/mL) | 250 µM (≈ 61.8 µg/mL) | 250 µM (≈ 61.8 µg/mL) | 61.7 ± 4.33 µM | 0.66 | 40.8 ± 0.8 µM | 250 µM (≈ 61.8 µg/mL) | 250 µM (≈ 61.8 µg/mL) | 250 µM (≈ 61.8 µg/mL) | 250 µM (≈ 61.8 µg/mL) | 250 µM (≈ 61.8 µg/mL) | 250 µM (≈ 61.8 µg/mL) | 500 µM (≈ 124 µg/mL) | 500 µM (≈ 124 µg/mL) | 250 µM (≈ 61.8 µg/mL) | 250 µM (≈ 61.8 µg/mL) | –
N=C(N/N=C/c1cc(I)cc(I)c1O)N/N=C/c1cc(I)cc(I)c1O [Compound 2g, Bis[2-((E)-2-hydroxy-3,5-diiodobenzylidene)hydrazineyl]methaniminium chloride] | – | – | – | – | – | – | – | – | – | – | – | – | – | – | – | – | – | – | – | – | MIC [17, 35]: 250 µM; MIC [17, 36]: 250 µM; MIC [18, 37]: > 500 µM; MIC [18, 38]: > 500 µM; MIC [19, 39]: > 500 µM; MIC [19, 40]: > 500 µM; MIC [20, 41]: > 500 µM; MIC [20, 42]: > 500 µM; IC50 ([5]; read-out: IC50 BuChE): 8.26 ± 0.21 µM; IC50 [6]: 54.9 ± 1.72 µM; MIC [16]: ≥ 500 µM; MIC (Candida krusei ATCC 6258; [43]): > 500 µM; MIC (Candida krusei ATCC 6258; [44]): > 500 µM
[H]/N=C(\N)NN=Cc1cccc(Cl)c1O [Compound 1e, (E)-2-(3-Chloro-2-hydroxybenzylidene)hydrazine-1-carboximidamide] | – | – | – | – | – | – | – | < 20 µM and 5.57 µM | – | 46.2 ± 2.26 µM | – | – | – | – | – | – | – | – | – | – | MIC [16]: ≥ 500 µM
